According to the NIST ThermoML archive (doi:10.1016/j.jct.2018.01.015):

Test: xn = mol fraction of the nth substance listed
Conditions: Gas, rotating-body viscometer for gases

N#N [nitrogen] + O=C=O
Conditions	viscosity [mPa·s]
253.16 K, 203.1 kPa, x1 = 0.7498	0.01498
253.16 K, 399 kPa, x1 = 0.7498	0.01501
253.16 K, 601.1 kPa, x1 = 0.7498	0.01505
253.16 K, 797.1 kPa, x1 = 0.7498	0.01509
253.16 K, 998.4 kPa, x1 = 0.7498	0.01514
253.17 K, 100.3 kPa, x1 = 0.7498	0.01495
253.17 K, 108.1 kPa, x1 = 0.4996	0.01423
253.17 K, 200.4 kPa, x1 = 0.4996	0.01425
253.17 K, 398.3 kPa, x1 = 0.4996	0.01427
253.17 K, 596.2 kPa, x1 = 0.4996	0.01431
253.17 K, 798.8 kPa, x1 = 0.4996	0.01435
253.18 K, 110.4 kPa, x1 = 0.2479	0.01347
253.18 K, 203.7 kPa, x1 = 0.2479	0.01348
253.18 K, 396.3 kPa, x1 = 0.2479	0.01348
253.18 K, 605.2 kPa, x1 = 0.2479	0.01352
253.21 K, 100.8 kPa, x1 = 1	0.01561
253.21 K, 200.9 kPa, x1 = 1	0.01564
253.21 K, 400.7 kPa, x1 = 1	0.01566
253.21 K, 600.8 kPa, x1 = 1	0.01571
253.21 K, 800.8 kPa, x1 = 1	0.01574
253.21 K, 1000.9 kPa, x1 = 1	0.01579
253.21 K, 1200.9 kPa, x1 = 1	0.01584
273.19 K, 108.8 kPa, x1 = 0.7498	0.01597
273.19 K, 109.2 kPa, x1 = 0.4996	0.01525
273.19 K, 201 kPa, x1 = 0.7498	0.01599
273.19 K, 400.9 kPa, x1 = 0.4996	0.0153
273.19 K, 401.7 kPa, x1 = 0.7498	0.01602
273.19 K, 600.3 kPa, x1 = 0.7498	0.01605
273.19 K, 603.1 kPa, x1 = 0.4996	0.01533
273.19 K, 800.1 kPa, x1 = 0.4996	0.01537
273.19 K, 800.2 kPa, x1 = 0.7498	0.0161
273.19 K, 1000.1 kPa, x1 = 0.7498	0.01613
273.19 K, 1200.6 kPa, x1 = 0.7498	0.01619
273.2 K, 201.1 kPa, x1 = 0.2479	0.01448
273.2 K, 205.6 kPa, x1 = 0.4996	0.01527
273.2 K, 397.9 kPa, x1 = 0.2479	0.0145
273.2 K, 601.6 kPa, x1 = 0.2479	0.01453
273.2 K, 1004.5 kPa, x1 = 0.4996	0.01541
273.21 K, 108.1 kPa, x1 = 0.2479	0.01448
273.21 K, 793.9 kPa, x1 = 0.2479	0.01457
273.24 K, 100.7 kPa, x1 = 1	0.01659
273.24 K, 200.8 kPa, x1 = 1	0.01661
273.24 K, 400.5 kPa, x1 = 1	0.01664
273.24 K, 600.4 kPa, x1 = 1	0.01667
273.24 K, 800.6 kPa, x1 = 1	0.01671
273.24 K, 1000.6 kPa, x1 = 1	0.01674
273.24 K, 1499.8 kPa, x1 = 1	0.01685
298.19 K, 108.9 kPa, x1 = 0.7498	0.01719
298.19 K, 196.7 kPa, x1 = 0.7498	0.01721
298.19 K, 402.3 kPa, x1 = 0.7498	0.01724
298.19 K, 604.2 kPa, x1 = 0.7498	0.01727
298.19 K, 801 kPa, x1 = 0.7498	0.0173
298.19 K, 999.3 kPa, x1 = 0.7498	0.01734
298.19 K, 1498.4 kPa, x1 = 0.7498	0.01744
298.2 K, 202.6 kPa, x1 = 0.7498	0.0172
298.2 K, 390.5 kPa, x1 = 0.7498	0.01724
298.2 K, 599.6 kPa, x1 = 0.7498	0.01727
298.2 K, 807 kPa, x1 = 0.7498	0.0173
298.2 K, 1008.5 kPa, x1 = 0.7498	0.01734
298.2 K, 1501.4 kPa, x1 = 0.7498	0.01744
298.21 K, 108 kPa, x1 = 0.4996	0.0165
298.21 K, 108.7 kPa, x1 = 0.2479	0.01571
298.21 K, 109 kPa, x1 = 0.4996	0.01649
298.21 K, 109 kPa, x1 = 0.7498	0.01719
298.21 K, 201.9 kPa, x1 = 0.4996	0.01651
298.21 K, 204.7 kPa, x1 = 0.4996	0.0165
298.21 K, 205.2 kPa, x1 = 0.2479	0.01572
298.21 K, 395.1 kPa, x1 = 0.2479	0.01574
298.21 K, 399.1 kPa, x1 = 0.4996	0.01654
298.21 K, 402.3 kPa, x1 = 0.4996	0.01654
298.21 K, 593.4 kPa, x1 = 0.4996	0.01656
298.21 K, 602.9 kPa, x1 = 0.2479	0.01577
298.21 K, 603.8 kPa, x1 = 0.4996	0.01657
298.21 K, 800.9 kPa, x1 = 0.4996	0.0166
298.21 K, 803.6 kPa, x1 = 0.4996	0.01661
298.21 K, 807.6 kPa, x1 = 0.2479	0.01581
298.21 K, 1000 kPa, x1 = 0.4996	0.01664
298.21 K, 1002.4 kPa, x1 = 0.2479	0.01585
298.21 K, 1003.3 kPa, x1 = 0.4996	0.01664
298.21 K, 1202 kPa, x1 = 0.4996	0.0167
298.21 K, 1204.4 kPa, x1 = 0.4996	0.01669
298.22 K, 107.9 kPa, x1 = 0.2479	0.01571
298.22 K, 204.8 kPa, x1 = 0.2479	0.01572
298.22 K, 401.2 kPa, x1 = 0.2479	0.01575
298.22 K, 602.1 kPa, x1 = 0.2479	0.01578
298.22 K, 794.6 kPa, x1 = 0.2479	0.01581
298.22 K, 1003 kPa, x1 = 0.2479	0.01585
298.24 K, 800.5 kPa, x1 = 1	0.01785
298.25 K, 99.6 kPa, x1 = 1	0.01776
298.25 K, 100.7 kPa, x1 = 1	0.01777
298.25 K, 200.5 kPa, x1 = 1	0.01778
298.25 K, 400.7 kPa, x1 = 1	0.0178
298.25 K, 400.8 kPa, x1 = 1	0.0178
298.25 K, 600.2 kPa, x1 = 1	0.01783
298.25 K, 1000.1 kPa, x1 = 1	0.01789
298.25 K, 1500.2 kPa, x1 = 1	0.01799
323.2 K, 109.1 kPa, x1 = 0.7498	0.01837
323.2 K, 198.2 kPa, x1 = 0.7498	0.01838
323.2 K, 393.8 kPa, x1 = 0.7498	0.01841
323.2 K, 600.2 kPa, x1 = 0.7498	0.01844
323.2 K, 800.3 kPa, x1 = 0.7498	0.01847
323.2 K, 1000.9 kPa, x1 = 0.7498	0.0185
323.2 K, 1500.1 kPa, x1 = 0.7498	0.0186
323.22 K, 108.4 kPa, x1 = 0.2479	0.01691
323.22 K, 109.2 kPa, x1 = 0.4996	0.01769
323.22 K, 196.1 kPa, x1 = 0.2479	0.01693
